The results in this text go back to patent publication EP4617268A1, “QUINAZOLINE DERIVATIVES” (Kyoto University, priority 2022, dated 2024).

SMILES strings stand for the structures. pEC50: −log10 of the molar value.

The test system of the test is IKBKAP-FD exon 20 inclusion (IKBKAP gene, IVS20+6T>C mutation). Put plainly: SPREADD reporter system for the IKBKAP splicing mutation (exon 20 skipping, IVS20+6T>C) in transfected HeLa cells, GFP/RFP ratio. Format: cell-based. Conditions: Homo sapiens, 24 h; HeLa cells transfected with SPREADD reporter construct; fluorescence measured one day later; IKBKAP-FD exon 20 inclusion rate by GFP/RFP ratio; %GFP of 20 pM 2-chloro-6-(2-furylmethyl)purine set to 100%. The method, then: A SPREADD reporter system for a splicing mutation of the IKBKAP gene in familial dysautonomia was prepared, as illustrated in FIG. 1. In this reporter system, GFP is expressed when the gene undergoes normal splicing, while RFP is expressed when the gene undergoes abnormal splicing (exon skipping).
HeLa cells transfected with the prepared SPREADD reporter construct were brought into contact with the compounds listed in Table 2 below and cultured (concentrations: 22.86237 nM, 68.58711 nM, 205.7613 nM, 617.284 nM, 1851.852 nM, 5555.556 nM, 16666.67 nM, or 50000 nM). One day later, fluorescence was measured using All-in-One Fluorescence Microscope BZ-X700 (Keyence Corp.), and the IKBKAP-FD exon 20 inclusion rate was quantified by the GFP/RFP ratio of the IKBKAP-FD reporter. […] The EC50 was determined with %GFP of 20 pM 2-chloro-6-(2-furylmethyl)purine set to 100%. Regression analysis for determining EC50 was performed using GraphPad Prism 7.05.
For `COc1cc2nc(Cl)nc(NCc3ccco3)c2cc1OC` [Example 1, 2-Chloro-N-(furan-2-ylmethyl)-6,7-dimethoxyquinazolin-4-amine], the pEC50 was 5.68. As for `COc1cc2nc(Cl)nc(NCc3cccs3)c2cc1OC` [Example 2, 2-Chloro-6,7-dimethoxy-N-(thiophen-2-ylmethyl)quinazolin-4-amine], the pEC50 is 5.67. Next, `COc1cc2nc(Cl)nc(NCc3ccsc3)c2cc1OC` [Example 3, 2-Chloro-6,7-dimethoxy-N-(thiophen-3-ylmethyl)quinazolin-4-amine]: 5.55; `COc1cc2nc(Cl)nc(NCc3nccs3)c2cc1OC` [Example 4, 2-Chloro-6,7-dimethoxy-N-(1,3-thiazol-2-ylmethyl)quinazolin-4-amine]: 4.44. Next, `COc1cc2nc(Cl)nc(NCc3ccncc3)c2cc1OC` [Example 5, 2-Chloro-6,7-dimethoxy-N-(pyridin-4-ylmethyl)quinazolin-4-amine]: 5.38; `COc1cc2nc(Cl)nc(NCc3ncco3)c2cc1OC` [Example 6, 2-Chloro-6,7-dimethoxy-N-(1,3-oxazol-2-ylmethyl)quinazolin-4-amine]: 5.24.

Regarding `COc1cc2nc(Cl)nc(NCc3cc[nH]c3)c2cc1OC` [Example 7, 2-Chloro-6,7-dimethoxy-N-(1H-pyrrol-3-ylmethyl) quinazolin-4-amine], the negative logarithm of the EC50 (pEC50) is 4.66. For `COc1cc2nc(Cl)nc(NCc3ccoc3)c2cc1OC` [Example 8, 2-Chloro-N-(furan-3-ylmethyl)-6,7-dimethoxyquinazolin-4-amine], the pEC50 was 4.70. Next, `COc1cc2nc(Cl)nc(NCc3ccccn3)c2cc1OC` [Example 9, 2-Chloro-6,7-dimethoxy-N-(pyridin-2-ylmethyl)quinazolin-4-amine]: 5.48. As for `COc1ccc2c(NCc3ccco3)nc(Cl)nc2c1` [Example 10, 2-Chloro-N-(furan-2-ylmethyl)-7-methoxyquinazolin-4-amine], the negative logarithm of the EC50 (pEC50) was 5.54. With `COc1ccc2nc(Cl)nc(NCc3ccco3)c2c1` [Example 11, 2-Chloro-N-(furan-2-ylmethyl)-6-methoxyquinazolin-4-amine] the figure was 5.10; with `COc1ccc2c(NCc3ccco3)cc(Cl)nc2c1` [Example 12, 2-Chloro-N-(furan-2-ylmethyl)-7-methoxyquinolin-4-amine], 5.97; with `COc1ccc2nc(Cl)cc(NCc3ccco3)c2c1` [Example 13, 2-Chloro-N-(furan-2-ylmethyl)-6-methoxyquinolin-4-amine], 5.36. `CCOc1cc2c(NCc3ccco3)nc(Cl)nc2cc1OC` [Example 14, 2-Chloro-6-ethoxy-N-(furan-2-ylmethyl)-7-methoxyquinazolin-4-amine]: the pEC50 is 5.86.

Consider `CCCOc1cc2c(NCc3ccco3)nc(Cl)nc2cc1OC` [Example 15, 2-Chloro-N-(furan-2-ylmethyl)-7-methoxy-6-propoxyquinazolin-4-amine], for which the pEC50 was 6.22. As to `COc1cc2nc(Cl)nc(NCc3ccco3)c2cc1OC(C)C` [Example 16, 2-Chloro-N-(furan-2-ylmethyl)-7-methoxy-6-(propan-2-yloxy)quinazolin-4-amine], the pEC50 was 5.60. With `COCCOc1cc2c(NCc3ccco3)nc(Cl)nc2cc1OC` [Example 17, 2-Chloro-N-(furan-2-ylmethyl)-7-methoxy-6-(2-methoxyethoxy)quinazolin-4-amine] the figure was 5.51; with `COc1cc2nc(Cl)nc(NCc3ccco3)c2cc1OCC1CC1` [Example 18, 2-Chloro-6-(cyclopropylmethoxy)-N-(furan-2-ylmethyl)-7-methoxyquinazolin-4-amine], 5.80.

With `COc1cc2nc(Cl)nc(NCc3ccco3)c2cc1OCC1COC1` [Example 19, 2-Chloro-N-(furan-2-ylmethyl)-7-methoxy-6-(oxetan-3-ylmethoxy)quinazolin-4-amine], the pEC50 was 6.77. Next, `COc1cc2nc(Cl)nc(NCc3ccco3)c2cc1OCCN1CCOCC1` [Example 20, 2-Chloro-N-(furan-2-ylmethyl)-7-methoxy-6-[2-(morpholin-4-yl)ethoxy] quinazolin-4-amine]: 5.08; `COc1cc2nc(Cl)nc(NCc3ccco3)c2cc1OCCCN1CCOCC1` [Example 21, 2-Chloro-N-(furan-2-ylmethyl)-7-methoxy-6-[3-(morpholin-4-yl)propoxy]quinazolin-4-amine]: 5.07. With `COc1cc2nc(Cl)nc(NCc3ccco3)c2cc1OCCC1CS(=O)(=O)C1` [Example 22, 2-Chloro-6-[2-(1,1-dioxidothiethan-3-yl)ethoxy]-N-(furan-2-ylmethyl)-7-methoxyquinazolin-4-amine] the figure was 4.84; with `COc1cc2nc(Cl)nc(NCc3ccco3)c2cc1OCCN` [Example 23, 6-(2-Aminoethoxy)-2-chloro-N-(furan-2-ylmethyl)-7-methoxyquinazolin-4-amine], 6.28; with `CNCCOc1cc2c(NCc3ccco3)nc(Cl)nc2cc1OC` [Example 24, 2-Chloro-N-(furan-2-ylmethyl)-7-methoxy-6-[2-(methylamino)ethoxy]quinazolin-4-amine], 6.32. Next, `COc1cc2nc(Cl)nc(NCc3ccco3)c2cc1OCCN(C)C` [Example 25, 2-Chloro-6-[2-(dimethylamino)ethoxy]-N-(furan-2-ylmethyl)-7-methoxyquinazolin-4-amine]: 6.10; `COc1cc2nc(Cl)nc(NCc3ccco3)c2cc1OCCO` [Example 26, 2-({2-Chloro-4-[(furan-2-ylmethyl)amino]-7-methoxyquinazolin-6-yl}oxy)ethanol]: 6.09.

As to `COc1cc2nc(Cl)nc(NCc3ccco3)c2cc1OCC1COCCO1` (stereo not drawn) [Example 27, 2-Chloro-6-(1,4-dioxan-2-ylmethoxy)-N-(furan-2-ylmethyl)-7-methoxyquinazolin-4-amine], the pEC50 is 5.69.

For `COc1cc2nc(Cl)nc(NCc3ccco3)c2cc1OCCC(=O)O` [Example 28, 3-({2-Chloro-4-[(furan-2-ylmethyl)amino]-7-methoxyquinazolin-6-yl}oxy)propanoic acid], the pEC50 is < 4.30. Next, `COC(=O)CCOc1cc2c(NCc3ccco3)nc(Cl)nc2cc1OC` [Example 29, Methyl 3-({2-chloro-4-[(furan-2-ylmethyl)amino]-7-methoxyquinazolin-6-yl}oxy)propanoate]: 5.19; `COC(=O)COc1cc2c(NCc3ccco3)nc(Cl)nc2cc1OC` [Example 30, Methyl ({2-chloro-4-[(furan-2-ylmethyl)amino]-7-methoxyquinazolin-6-yl}oxy)acetate]: 4.58; `COc1cc2c(NCc3ccco3)nc(Cl)nc2cc1OCCN` [Example 31, 7-(2-Aminoethoxy)-2-chloro-N-(furan-2-ylmethyl)-6-methoxyquinazolin-4-amine]: 5.50.

In the case of `CNCCOc1cc2nc(Cl)nc(NCc3ccco3)c2cc1OC` [Example 32, 2-Chloro-N-(furan-2-ylmethyl)-6-methoxy-7-[2-(methylamino)ethoxy]quinazolin-4-amine], the pEC50 was 5.37. With `CCOc1cc2nc(Cl)nc(NCc3ccco3)c2cc1OC` [Example 33, 2-Chloro-7-ethoxy-N-(furan-2-ylmethyl)-6-methoxyquinazolin-4-amine] the figure was 5.44.
